Measured values: paper PMC10341893, “Motifs in Natural Products as Useful Scaffolds to Obtain Novel Benzo[d]imidazole-Based Cannabinoid Type 2 (CB2) Receptor Agonists” (International Journal of Molecular Sciences, 2023)
Like-named read-outs stand apart in the source and are kept apart here.

How the values were obtained:
hCB2 receptor [1] = biological target: T1, hCB2 receptor (Homo sapiens, UniProt P34972); experiment: Single-dose radioligand displacement assay ([3H]WIN55212-2); format: binding; set-up: host or cells: CHO cells; settings: membranes from recombinant CHO cells expressing human CB2, duplicate; for inhibition at 10 µM: read-out: Inhibition (%) of [3H]WIN55212-2 specific binding, 10 µM single dose; for Inhibition (%) of [3H]WIN55212-2 specific binding: 10 µM single dose
Description: To assess ligand binding to CB2 receptors, radioligand displacement assay at a single dose (10 μM) was performed in membranes obtained from recombinant CHO cells expressing human CB2 receptors (Eurofins Cerep SA, France). Out of 26 compounds, more than 50% of the molecules presented >50% displacement, while 20% of the compounds (5, 6, 16, 19, 22) presented >80% displacement of radioligand binding at a 10 μM dose. Compounds 5, 6, 16, 19, and 22 were further tested for CB2 receptor activation (agonist activity, see below) and CB2/CB1 selectivity.
All membrane preparations for these studies were generated at Cerep Inc. according to standard protocols. Duplicate determinations were performed for each test compound. Compounds were dissolved in DMSO to generate a stock solution. Radioligand binding methods were adapted from Munro et al..

human recombinant CB1R = biological target: T2, human recombinant CB1R (Homo sapiens, UniProt P21554); experiment: CB1 receptor binding assay ([3H]-CP-55,940 displacement, HEK cell membranes)
T2 construct: expressed in transfected cells; host or cells: HEK cells
Description: (§1) To assess the compound selectivity between CB1 and CB2 receptors, binding constants were determined through a radioligand displacement assay by testing concentration–response curves for compounds 5, 6, 16, 19, and 22. As shown in Figure 4 and summarized in Table 4, three of the tested compounds (5, 19, and 22) presented moderate binding affinity in a low micromolar range to both CB1 and CB2 receptors.
(§2) CB1 and CB2 receptor binding assays were performed exactly as previously described. […] Displacement curves were performed by incubating [^3H]-CP-55 940 (90 min, 30 °C) with increasing concentrations of compounds (10 nM−10 μM). Ki values were calculated by applying the Cheng−Prusoff equation to the IC50 values (obtained by GraphPad, Prism Software 9.5) for the displacement of the bound radioligand by compounds.

hCB2 receptor [2] = biological target: T1, hCB2 receptor; experiment: cAMP accumulation assay (forskolin-stimulated, CHO cells expressing hCB2); format: cell-based; settings: for agonist activity at CB2 (cAMP accumulation): recombinant cells expressing CB2 receptors
Description: Compounds were further characterized through in vitro functional assays by measuring the variation in forskolin-induced cAMP accumulation (Eurofins Cerep services). The tested compounds diminished the accumulation of cyclic AMP, indicating activity as agonists (Figure 3).
In vitro pharmacology assay for human CB2 agonist effect in CHO cells was performed by Eurofins Cerep (Celle-Lévescault, France). Five compounds were tested at several concentrations for EC50 determination. […] CHO cells stably expressing hCB2 receptor were used to determine agonist effect of compounds, based on the measurement of cAMP level. Assay protocol is adapted from Felder et al..

hCB2 receptor [3] = biological target: T1, hCB2 receptor; experiment: CB2 receptor binding assay ([3H]-CP-55,940 displacement, HEK cell membranes); set-up: expressed in transfected cells; host or cells: HEK cells; settings: for Ki (CB1)/Ki (CB2): selectivity ratio CB2 over CB1
Description: as §1, §2

[4] = [3H]-CP-55,940 displacement, means ± SD of 3 independent experiments in duplicate, read-out: Ki CB1
[5] = [3H]-CP-55,940 displacement, means ± SD of 3 independent experiments in duplicate, read-out: Ki CB2

T1 sequence (P34972 whole entry): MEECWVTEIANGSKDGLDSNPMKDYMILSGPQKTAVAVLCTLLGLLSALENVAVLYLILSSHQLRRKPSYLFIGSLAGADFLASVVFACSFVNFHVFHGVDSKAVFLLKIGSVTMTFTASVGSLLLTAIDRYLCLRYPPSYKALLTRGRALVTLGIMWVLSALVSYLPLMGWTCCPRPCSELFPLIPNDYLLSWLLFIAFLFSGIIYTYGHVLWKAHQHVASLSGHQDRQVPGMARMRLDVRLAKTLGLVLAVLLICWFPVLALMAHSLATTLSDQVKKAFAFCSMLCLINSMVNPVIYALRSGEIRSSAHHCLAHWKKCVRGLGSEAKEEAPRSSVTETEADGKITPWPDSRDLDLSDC
T2 sequence (P21554 whole entry): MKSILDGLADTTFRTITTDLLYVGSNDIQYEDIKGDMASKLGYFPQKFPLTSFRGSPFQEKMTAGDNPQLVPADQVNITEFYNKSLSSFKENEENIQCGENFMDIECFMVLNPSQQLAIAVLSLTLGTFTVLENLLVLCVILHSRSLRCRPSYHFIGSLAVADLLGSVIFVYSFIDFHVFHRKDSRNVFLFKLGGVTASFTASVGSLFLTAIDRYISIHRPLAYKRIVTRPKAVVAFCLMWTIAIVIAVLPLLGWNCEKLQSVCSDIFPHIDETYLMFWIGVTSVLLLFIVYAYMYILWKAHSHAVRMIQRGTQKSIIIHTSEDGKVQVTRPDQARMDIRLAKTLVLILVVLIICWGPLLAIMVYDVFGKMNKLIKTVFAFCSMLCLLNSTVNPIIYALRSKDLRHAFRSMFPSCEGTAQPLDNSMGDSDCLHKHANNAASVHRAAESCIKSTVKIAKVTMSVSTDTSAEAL

CC1CCC(C(C)C)C(Sc2nc3ccccc3n2Cc2cccc3ccccc23)C1 (stereo not shown) [Compound 1, 2-((2-isopropyl-5-methylcyclohexyl)thio)-1-(naphthalen-1-ylmethyl)-1H-benzo[d]imidazole]
inhibition at 10 µM (hCB2 receptor [1]): 2%

CC1CCC(C(C)C)C(Sc2nc3ccccc3n2Cc2ccccc2)C1 (stereo not shown) [Compound 2, 1-benzyl-2-((2-isopropyl-5-methylcyclohexyl)thio)-1H-benzo[d]imidazole]
inhibition at 10 µM (hCB2 receptor [1]): 72%

CCn1c(SC2CC(C)CCC2C(C)C)nc2ccccc21 (stereo not shown) [Compound 3, 1-ethyl-2-((2-isopropyl-5-methylcyclohexyl)thio)-1H-benzo[d]imidazole]
inhibition at 10 µM (hCB2 receptor [1]): 69%

CC1CCC(C(C)C)C(Oc2nc3ccccc3n2Cc2cccc3ccccc23)C1 (stereo not shown) [Compound 4, 2-((2-isopropyl-5-methylcyclohexyl)oxy)-1-(naphthalen-1-ylmethyl)-1H-benzo[d]imidazole]
inhibition at 10 µM (hCB2 receptor [1]): 37%

CC1CCC(C(C)C)C(Oc2nc3ccccc3n2Cc2ccccc2)C1 (stereo not shown) [Compound 5, 1-benzyl-2-((2-isopropyl-5-methylcyclohexyl)oxy)-1H-benzo[d]imidazole]
Inhibition (%) of [3H]WIN55212-2 specific binding (hCB2 receptor [1]): 90%
inhibition at 10 µM (hCB2 receptor [1]): > 80%
Ki (human recombinant CB1R): 920 ± 1150 nM
EC50 (hCB2 receptor [2]): 14 nM
agonist activity at CB2 (cAMP accumulation) (hCB2 receptor [2]): agonist activity was confirmed
Ki (hCB2 receptor [3]): 400 ± 80 nM
Ki (CB1)/Ki (CB2) (hCB2 receptor [3]): 2.3

CC(C)=CCC/C(C)=C/CSc1nc2ccccc2n1Cc1cccc2ccccc12 [Compound 7, (E)-2-((3,7-dimethylocta-2,6-dien-1-yl)thio)-1-(naphthalen-1-ylmethyl)-1H-benzo[d]imidazole]
inhibition at 10 µM (hCB2 receptor [1]): 42%

CC(C)=CCC/C(C)=C/CSc1nc2ccccc2n1Cc1ccccc1 [Compound 8, (E)-1-benzyl-2-((3,7-dimethylocta-2,6-dien-1-yl)thio)-1H-benzo[d]imidazole]
Inhibition (%) of [3H]WIN55212-2 specific binding (hCB2 receptor [1]): 71%

CCn1c(SC/C=C(\C)CCC=C(C)C)nc2ccccc21 [Compound 9, (E)-2-((3,7-dimethylocta-2,6-dien-1-yl)thio)-1-ethyl-1H-benzo[d]imidazole]
inhibition at 10 µM (hCB2 receptor [1]): 54%

CC(C)=CCC/C(C)=C/COc1nc2ccccc2n1Cc1cccc2ccccc12 [Compound 10, (E)-2-((3,7-dimethylocta-2,6-dien-1-yl)oxy)-1-(naphthalen-1-ylmethyl)-1H-benzo[d]imidazole]
Inhibition (%) of [3H]WIN55212-2 specific binding (hCB2 receptor [1]): 40%

CC(C)=CCC/C(C)=C/COc1nc2ccccc2n1Cc1ccccc1 [Compound 11, (E)-1-benzyl-2-((3,7-dimethylocta-2,6-dien-1-yl)oxy)-1H-benzo[d]imidazole]
inhibition at 10 µM (hCB2 receptor [1]): 35%

CCn1c(OC/C=C(\C)CCC=C(C)C)nc2ccccc21 [Compound 12, (E)-2-((3,7-dimethylocta-2,6-dien-1-yl)oxy)-1-ethyl-1H-benzo[d]imidazole]
Inhibition (%) of [3H]WIN55212-2 specific binding (hCB2 receptor [1]): −3%

c1ccc2c(Cn3c(SC45CC6CC(CC(C6)C4)C5)nc4ccccc43)cccc2c1 [Compound 13, 2-(adamantan-1-ylthio)-1-(naphthalen-1-ylmethyl)-1H-benzo[d]imidazole]
inhibition at 10 µM (hCB2 receptor [1]): 30%

c1ccc(Cn2c(SC34CC5CC(CC(C5)C3)C4)nc3ccccc32)cc1 [Compound 14, 2-(adamantan-1-ylthio)-1-benzyl-1H-benzo[d]imidazole]
Inhibition (%) of [3H]WIN55212-2 specific binding (hCB2 receptor [1]): 69%

CCn1c(SC23CC4CC(CC(C4)C2)C3)nc2ccccc21 [Compound 15, 2-(adamantan-1-ylthio)-1-ethyl-1H-benzo[d]imidazole]
Inhibition (%) of [3H]WIN55212-2 specific binding (hCB2 receptor [1]): 63%

c1ccc(Cn2c(OC34CC5CC(CC(C5)C3)C4)nc3ccccc32)cc1 [Compound 16, 2-(adamantan-1-yloxy)-1-benzyl-1H-benzo[d]imidazole]
Inhibition (%) of [3H]WIN55212-2 specific binding (hCB2 receptor [1]): 86%
inhibition at 10 µM (hCB2 receptor [1]): > 80%
Ki (human recombinant CB1R): > 10000 nM
EC50 (hCB2 receptor [2]): 20 nM
agonist activity at CB2 (cAMP accumulation) (hCB2 receptor [2]): agonist activity was confirmed
Ki (hCB2 receptor [3]): 630 ± 190 nM

CCn1c(OC23CC4CC(CC(C4)C2)C3)nc2ccccc21 [Compound 17, 2-(adamantan-1-yloxy)-1-ethyl-1H-benzo[d]imidazole]
Inhibition (%) of [3H]WIN55212-2 specific binding (hCB2 receptor [1]): 61%

COc1ccc(CSc2nc3ccccc3n2Cc2cccc3ccccc23)cc1 [Compound 18, 2-((4-methoxybenzyl)thio)-1-(naphthalen-1-ylmethyl)-1H-benzo[d]imidazole]
Inhibition (%) of [3H]WIN55212-2 specific binding (hCB2 receptor [1]): 46%

COc1ccc(CSc2nc3ccccc3n2Cc2ccccc2)cc1 [Compound 19, 1-benzyl-2-((4-methoxybenzyl)thio)-1H-benzo[d]imidazole]
Inhibition (%) of [3H]WIN55212-2 specific binding (hCB2 receptor [1]): 88%
inhibition at 10 µM (hCB2 receptor [1]): > 80%
Ki (human recombinant CB1R; [4]): 1230 ± 880 nM
agonist activity at CB2 (cAMP accumulation) (hCB2 receptor [2]): agonist activity was confirmed
Ki (hCB2 receptor [3]; [5]): 930 ± 290 nM
Ki (CB1)/Ki (CB2) (hCB2 receptor [3]): 1.3

CCn1c(SCc2ccc(OC)cc2)nc2ccccc21 [Compound 20, 1-ethyl-2-((4-methoxybenzyl)thio)-1H-benzo[d]imidazole]
inhibition at 10 µM (hCB2 receptor [1]): 63%

COc1cccc(Oc2nc3ccccc3n2Cc2cccc3ccccc23)c1 [Compound 21, 2-(3-methoxyphenoxy)-1-(naphthalen-1-ylmethyl)-1H-benzo[d]imidazole]
Inhibition (%) of [3H]WIN55212-2 specific binding (hCB2 receptor [1]): 62%

COc1cccc(Oc2nc3ccccc3n2Cc2ccccc2)c1 [Compound 22, 1-benzyl-2-(3-methoxyphenoxy)-1H-benzo[d]imidazole]
Inhibition (%) of [3H]WIN55212-2 specific binding (hCB2 receptor [1]): 84%
inhibition at 10 µM (hCB2 receptor [1]): > 80%
Ki (human recombinant CB1R; [4]): 2040 ± 1220 nM
agonist activity at CB2 (cAMP accumulation) (hCB2 receptor [2]): agonist activity was confirmed
Ki (hCB2 receptor [3]; [5]): 600 ± 520 nM
Ki (CB1)/Ki (CB2) (hCB2 receptor [3]): 3.4

CCn1c(Oc2cccc(OC)c2)nc2ccccc21 [Compound 23, 1-ethyl-2-(3-methoxyphenoxy)-1H-benzo[d]imidazole]
inhibition at 10 µM (hCB2 receptor [1]): 54%

CCCCCCC(C)(C)c1cc(OC)cc(Oc2nc3ccccc3n2Cc2cccc3ccccc23)c1 [Compound 24, 2-(3-methoxy-5-(2-methyloctan-2-yl)phenoxy)-1-(naphthalen-1-ylmethyl)-1H-benzo[d]imidazole]
inhibition at 10 µM (hCB2 receptor [1]): 32%

CCCCCCC(C)(C)c1cc(OC)cc(Oc2nc3ccccc3n2Cc2ccccc2)c1 [Compound 25, 1-benzyl-2-(3-methoxy-5-(2-methyloctan-2-yl)phenoxy)-1H-benzo[d]imidazole]
inhibition at 10 µM (hCB2 receptor [1]): 33%

CCCCCCC(C)(C)c1cc(OC)cc(Oc2nc3ccccc3n2CC)c1 [Compound 26, 1-ethyl-2-(3-methoxy-5-(2-methyloctan-2-yl)phenoxy)-1H-benzo[d]imidazole]
inhibition at 10 µM (hCB2 receptor [1]): 49%
